# Molecular target: T1, SRPK2 (Homo sapiens, UniProt P78362)
# T1 construct: purchased Thermo Fisher Scientific (Life Technologies) SelectScreen
# Test: SelectScreen Z'LYTE
# Type: biochemical
# Summary of the method: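 SelectScreen broad panel; activity (Z'LYTE, Adapta) plus binding formats. ATP: Km app for CSF1R Z'LYTE; 10 for CAMK1 Adapta. Readout = % per kinase.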
# T1 sequence (P78362 whole entry): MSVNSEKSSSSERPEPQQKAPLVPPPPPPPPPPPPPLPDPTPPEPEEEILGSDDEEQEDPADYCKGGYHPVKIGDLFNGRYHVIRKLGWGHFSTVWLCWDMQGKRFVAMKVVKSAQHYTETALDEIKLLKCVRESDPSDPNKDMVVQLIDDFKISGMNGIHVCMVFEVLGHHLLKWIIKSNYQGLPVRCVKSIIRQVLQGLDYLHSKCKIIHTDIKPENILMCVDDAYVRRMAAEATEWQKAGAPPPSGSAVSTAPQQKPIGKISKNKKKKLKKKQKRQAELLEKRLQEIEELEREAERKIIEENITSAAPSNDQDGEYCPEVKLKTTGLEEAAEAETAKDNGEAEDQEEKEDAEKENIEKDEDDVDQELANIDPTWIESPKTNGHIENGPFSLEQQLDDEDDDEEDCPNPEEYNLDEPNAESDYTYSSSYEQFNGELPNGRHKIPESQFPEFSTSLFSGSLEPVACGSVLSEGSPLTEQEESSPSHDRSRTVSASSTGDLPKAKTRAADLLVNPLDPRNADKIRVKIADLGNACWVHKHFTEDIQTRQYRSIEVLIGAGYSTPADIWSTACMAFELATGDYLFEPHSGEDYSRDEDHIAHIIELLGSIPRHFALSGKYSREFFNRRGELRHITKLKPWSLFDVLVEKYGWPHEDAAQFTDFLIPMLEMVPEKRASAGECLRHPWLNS
compound,measurement,value
CN(C(=O)CN1CCOCC1)c1ccc2sc3c(-c4cccc5c(=O)cc(N6CC7CCC(C6)O7)oc45)cccc3c2c1 [NU5455],inhibition at 1 µM,3.9%
